16 molecules from PMC9516332 (Frontiers in Oncology, 2022) can be followed below.

Assay in all cases: Kinase panel profiling at 1 µmol/L (MSA or IMAP), percentage inhibition
Assay type in all cases: biochemical

The target of test [1] is T1, panel of 255 wild-type kinases (Homo sapiens, UniProt O94806).
T1 sequence (O94806 1-890): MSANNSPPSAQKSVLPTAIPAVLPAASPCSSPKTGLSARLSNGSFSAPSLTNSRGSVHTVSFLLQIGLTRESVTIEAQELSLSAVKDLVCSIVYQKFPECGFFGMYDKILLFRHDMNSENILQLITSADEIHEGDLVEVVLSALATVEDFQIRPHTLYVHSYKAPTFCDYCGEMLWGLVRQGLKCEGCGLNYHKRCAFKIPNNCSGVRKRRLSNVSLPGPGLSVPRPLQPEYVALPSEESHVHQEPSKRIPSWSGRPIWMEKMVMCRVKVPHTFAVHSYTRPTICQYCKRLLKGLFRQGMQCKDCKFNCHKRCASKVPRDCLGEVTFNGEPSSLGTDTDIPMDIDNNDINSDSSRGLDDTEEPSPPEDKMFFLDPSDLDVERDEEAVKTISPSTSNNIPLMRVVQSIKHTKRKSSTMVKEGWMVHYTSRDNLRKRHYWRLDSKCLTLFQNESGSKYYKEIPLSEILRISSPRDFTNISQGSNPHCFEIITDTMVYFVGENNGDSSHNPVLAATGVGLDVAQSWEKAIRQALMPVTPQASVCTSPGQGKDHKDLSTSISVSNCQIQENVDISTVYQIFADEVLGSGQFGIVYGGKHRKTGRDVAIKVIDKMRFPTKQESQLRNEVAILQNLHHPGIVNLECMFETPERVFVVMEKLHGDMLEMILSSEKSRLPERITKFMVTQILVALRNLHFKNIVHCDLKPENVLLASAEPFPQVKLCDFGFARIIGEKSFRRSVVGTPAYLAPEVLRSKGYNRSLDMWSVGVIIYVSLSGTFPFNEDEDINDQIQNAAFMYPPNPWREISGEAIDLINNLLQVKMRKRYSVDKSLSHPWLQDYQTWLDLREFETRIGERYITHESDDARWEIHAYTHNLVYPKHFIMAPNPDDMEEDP
The note with it: read-out: %-inhibition at 1 µmol/L, PKD3.

The target in test [2] is panel of 255 wild-type kinases (Homo sapiens, UniProt P50613). To be noted: read-out: %-inhibition CDK7/CycH/MAT1.
In test [3] the target is T2, panel of 255 wild-type kinases (Homo sapiens, UniProt P54753).
T2 sequence (P54753 34-998): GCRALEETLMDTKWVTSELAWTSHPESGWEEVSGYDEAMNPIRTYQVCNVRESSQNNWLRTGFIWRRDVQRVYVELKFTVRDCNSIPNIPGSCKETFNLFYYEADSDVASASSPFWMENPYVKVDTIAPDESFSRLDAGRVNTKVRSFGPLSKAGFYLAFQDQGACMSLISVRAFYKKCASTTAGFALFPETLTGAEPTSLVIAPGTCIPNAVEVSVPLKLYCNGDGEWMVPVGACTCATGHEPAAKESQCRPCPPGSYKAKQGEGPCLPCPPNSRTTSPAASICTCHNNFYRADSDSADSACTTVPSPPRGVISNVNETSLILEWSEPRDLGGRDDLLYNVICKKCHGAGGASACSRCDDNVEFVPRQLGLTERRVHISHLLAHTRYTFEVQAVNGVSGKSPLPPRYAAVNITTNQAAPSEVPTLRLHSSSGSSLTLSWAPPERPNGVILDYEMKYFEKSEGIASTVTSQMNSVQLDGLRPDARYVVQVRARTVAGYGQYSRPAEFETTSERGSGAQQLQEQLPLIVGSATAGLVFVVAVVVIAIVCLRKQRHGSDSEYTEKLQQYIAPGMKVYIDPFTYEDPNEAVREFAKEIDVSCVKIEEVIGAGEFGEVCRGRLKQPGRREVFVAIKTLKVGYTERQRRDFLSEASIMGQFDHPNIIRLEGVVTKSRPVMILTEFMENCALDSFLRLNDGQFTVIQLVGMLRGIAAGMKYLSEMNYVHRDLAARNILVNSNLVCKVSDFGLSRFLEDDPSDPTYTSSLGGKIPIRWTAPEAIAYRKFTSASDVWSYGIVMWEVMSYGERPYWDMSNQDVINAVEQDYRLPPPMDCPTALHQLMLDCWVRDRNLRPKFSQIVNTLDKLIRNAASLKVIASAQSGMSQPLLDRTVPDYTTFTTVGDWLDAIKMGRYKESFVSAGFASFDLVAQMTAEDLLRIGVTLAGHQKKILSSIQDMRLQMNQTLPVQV
The note with it: read-out: %-inhibition at 1 µmol/L, EPHB3.

Test [4] has as its target panel of 255 wild-type kinases (Homo sapiens, UniProt Q15375). To be noted: read-out: %-inhibition at 1 µmol/L, EPHA7.
In test [5] the target is panel of 255 wild-type kinases (Homo sapiens, UniProt Q9H4B4). To be noted: read-out: %-inhibition at 1 µmol/L, PLK3.
Test [6] concerns the target T3, panel of 255 wild-type kinases (Homo sapiens, UniProt Q9UQB9).
T3 sequence (Q9UQB9 1-309): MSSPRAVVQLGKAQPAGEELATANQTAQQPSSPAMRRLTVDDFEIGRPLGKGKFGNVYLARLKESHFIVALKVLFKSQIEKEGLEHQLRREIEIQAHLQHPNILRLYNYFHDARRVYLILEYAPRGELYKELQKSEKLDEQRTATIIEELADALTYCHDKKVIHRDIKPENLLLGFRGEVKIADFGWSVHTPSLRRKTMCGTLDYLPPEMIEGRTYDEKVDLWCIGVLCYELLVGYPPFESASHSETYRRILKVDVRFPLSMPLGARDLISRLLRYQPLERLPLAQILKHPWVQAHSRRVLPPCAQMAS
To be noted: read-out: %-inhibition AurC.

Setting [7] is: kinase PKD3, 1 µmol/L single concentration.
The mark [8] stands for this setting: CDK7/CycH/MAT1 kinase assay, 1 µmol/L single concentration.
Where [9] appears, read: kinase EPHB3, 1 µmol/L single concentration.
Where [10] appears, read: kinase EPHA7, 1 µmol/L single concentration.
The mark [11] stands for this setting: kinase PLK3, 1 µmol/L single concentration.
[12] abbreviates: AurC kinase assay, 1 µmol/L single concentration.

Like-named read-outs stand apart in the source and are kept apart here.

Regarding `Cn1cc(-c2cc3c(N4CCN(c5ncc([C@@](C)(N)c6ccc(F)cc6)cn5)CC4)ncnn3c2)cn1` [avapritinib], the inhibition at 1 µM was determined as 8% in test [1] (setting [7]); 0.833% in test [2] (setting [8]); 3% in test [3] (setting [9]); 13% in test [4] (setting [10]); 5.69% in test [5] (setting [11]); 14% in test [6] (setting [12]).

In the case of `C[C@H](Nc1ncnc2nc[nH]c12)c1cc2cccc(Cl)c2c(=O)n1-c1ccccc1` [duvelisib], the inhibition at 1 µM in test [1] (setting [7]) is -3.52%; in test [2] (setting [8]) it was -5.41%; in test [3] (setting [9]), 4%; in test [4] (setting [10]) it was -2.14%; in test [5] (setting [11]) it was 4.56%; in test [6] (setting [12]), 10%.

With `COc1cc2ncnc(Nc3ccc(F)c(Cl)c3)c2cc1NC(=O)/C=C/CN1CCCCC1` [dacomitinib], the inhibition at 1 µM in test [1] (setting [7]) came to 8%; in test [2] (setting [8]), 3.35%; in test [3] (setting [9]), 2%; in test [4] (setting [10]), 38%; in test [5] (setting [11]), 3.6%; in test [6] (setting [12]) it was 0.922%.

In the case of `CCN1CCN(c2ccc(Nc3cc(N(C)C(=O)Nc4c(Cl)c(OC)cc(OC)c4Cl)ncn3)cc2)CC1` [infigratinib], the inhibition at 1 µM was 11% in test [1] (setting [7]); 9% in test [2] (setting [8]); -1% in test [3] (setting [9]); -4% in test [4] (setting [10]); -0.24% in test [5] (setting [11]); -7.58% in test [6] (setting [12]).

Take `Cn1cnc2c(F)c(Nc3ccc(Br)cc3Cl)c(C(=O)NOCCO)cc21` [selumetinib]: the inhibition at 1 µM in test [1] (setting [7]) is 0.359%; in test [2] (setting [8]), 1.7%; in test [3] (setting [9]), -3%; in test [4] (setting [10]), -1.78%; in test [5] (setting [11]) it was 0.774%; in test [6] (setting [12]), -0.456%.

Consider `CNC(=O)c1ccc(-c2cnc3ncc(Cc4ccc5ncccc5c4)n3n2)cc1F` [capmatinib], for which the inhibition at 1 µM is -3.34% in test [1]; -0.376% in test [2]; 0.192% in test [3]; -0.309% in test [4]; 0.709% in test [5]; -4.72% in test [6].

With `COC(=O)N[C@@H](C)CNc1nccc(-c2cn(C(C)C)nc2-c2cc(Cl)cc(NS(C)(=O)=O)c2F)n1` [encorafenib], the inhibition at 1 µM is 5% in test [1] (setting [7]); -6.5% in test [2] (setting [8]); 4% in test [3] (setting [9]); 5% in test [4] (setting [10]); 0.929% in test [5] (setting [11]); -10% in test [6] (setting [12]).

`Cc1cc(Nc2ncnc3ccc(NC4=NC(C)(C)CO4)cc23)ccc1Oc1ccn2ncnc2c1` [tucatinib]: the inhibition at 1 µM in test [1] (setting [7]) is 39%; in test [2] (setting [8]) it was 6%; in test [3] (setting [9]), -5.68%; in test [4] (setting [10]), 1.07%; in test [5] (setting [11]), 1.59%; in test [6] (setting [12]) it was -5.26%.

Regarding `C=CC(=O)N1CCC([C@@H]2CCNc3c(C(N)=O)c(-c4ccc(Oc5ccccc5)cc4)nn32)CC1` [zanubrutinib], the inhibition at 1 µM in test [1] (setting [7]) is 13%; in test [2] (setting [8]), -9%; in test [3] (setting [9]), -1.32%; in test [4] (setting [10]), 0.758%; in test [5] (setting [11]), -4.39%; in test [6] (setting [12]), -0.855%.

As for `Cn1cnc2c(F)c(Nc3ccc(Br)cc3F)c(C(=O)NOCCO)cc21` [binimetinib], the inhibition at 1 µM is 0.731% in test [1] (setting [7]); -5% in test [2] (setting [8]); 3.28% in test [3] (setting [9]); 0.598% in test [4] (setting [10]); -0.0416% in test [5] (setting [11]); -6.37% in test [6] (setting [12]).

As to `COc1ccc(CN2C3CC2CN(c2ccc(-c4cc(OCC(C)(C)O)cn5ncc(C#N)c45)cn2)C3)cn1` [selpercatinib], the inhibition at 1 µM is 12% in test [1] (setting [7]); 6% in test [2] (setting [8]); -0.598% in test [3] (setting [9]); 96% in test [4] (setting [10]); -1.64% in test [5] (setting [11]); 80% in test [6] (setting [12]).

Consider `CCN1C(=O)N(c2c(F)c(OC)cc(OC)c2F)Cc2cnc3[nH]c(CN4CCOCC4)cc3c21` [pemigatinib], for which the inhibition at 1 µM in test [1] (setting [7]) is 14%; in test [2] (setting [8]), -12%; in test [3] (setting [9]) it was -2.52%; in test [4] (setting [10]), -0.619%; in test [5] (setting [11]), -1.19%; in test [6] (setting [12]) it was 5%.

For `CN1CCN(c2ccc(C(=O)Nc3n[nH]c4ccc(Cc5cc(F)cc(F)c5)cc34)c(NC3CCOCC3)c2)CC1` [entrectinib], the inhibition at 1 µM stood at 3% in test [1] (setting [7]); 27% in test [2] (setting [8]); 8% in test [3] (setting [9]); 44% in test [4] (setting [10]); 4.71% in test [5] (setting [11]); 67% in test [6] (setting [12]).

For the molecule `CO[C@]1(C(=O)N[C@@H](C)c2ccc(-n3cc(F)cn3)nc2)CC[C@H](c2nc(C)cc(Nc3cc(C)[nH]n3)n2)CC1` [pralsetinib], the inhibition at 1 µM in test [1] (setting [7]) is 3%; in test [2] (setting [8]), 19%; in test [3] (setting [9]), -0.435%; in test [4] (setting [10]), 68%; in test [5] (setting [11]), -0.12%; in test [6] (setting [12]), 36%.

`C[C@H]1Oc2cc(cnc2N)-c2c(nn(C)c2C#N)CN(C)C(=O)c2ccc(F)cc21` [lorlatinib]: the inhibition at 1 µM in test [1] (setting [7]) came to 1.46%; in test [3] (setting [9]) it was 13%; in test [4] (setting [10]), 56%; in test [5] (setting [11]) it was 2.15%; in test [6] (setting [12]), 19%.

`CCn1c(=O)c(-c2cc(NC(=O)Nc3ccccc3)c(F)cc2Br)cc2cnc(NC)cc21` [ripretinib]: the inhibition at 1 µM in test [1] (setting [7]) is 15%; in test [2] (setting [8]), -1.48%; in test [3] (setting [9]) it was 59%; in test [4] (setting [10]) it was 54%; in test [5] (setting [11]), 4%; in test [6] (setting [12]), 0.523%.
